Source: patent US6399629B1, “Efflux pump inhibitors” (priority 1998, dated 2002)
Counter-ions that a name gives are not always drawn.

Legend:
[1] = tested on: Pseudomonas aeruginosa PAM1001; test: microbe, parasite or virus in culture; type: cell-based; settings: Pseudomonas aeruginosa, PAM1001, read-out: Inhibition (%) of growth of P. aeruginosa PAM1001
Experimental: For compounds labeled with the prefix ‘D’, potentiation is measured by inhibition of growth of Pseudomonas aeruginosa PAM1001 at varying concentrations of efflux pump inhibitors (EPIs) in the presence of levofloxacin (0.25 microg/mL). Bacteria are grown in Mueller Hinton Broth (MHB, Difco) with an initial inoculum of 1×10^6 CFU/mL. Kinetics of bacterial growth is monitored, during 18 h of incubation at 37° C., by measurement of the culture absorbance at 650 nm using a 96-well plate spectrophotometer (SpectraMax, Molecular Devices). The inhibitory effect of EPIs is expressed as a percentage of growth inhibition compared to a control bacterial culture grown in the presence of 0.25 microg/mL levofloxacin but without EPIs.

[2] = tested on: Pseudomonas aeruginosa PAM1001; test: checkerboard assay (broth microdilution): levofloxacin MIC in presence of efflux pump inhibitor; type: cell-based
Summary of the method: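 Reduction of levofloxacin MIC by an efflux pump inhibitor measured against Pseudomonas aeruginosa PAM1001. Each microdilution well held a unique combination of levofloxacin and inhibitor (max 40 μg/mL) in MHB, inoculum 5×10^5 CFU/mL. Readout after 20 h, 35° C: OD650 plus visual inspection.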

Compound	inhibition at 20 µg/mL [1]	inhibition at 40 µg/mL [1]	inhibition at 2.5 µg/mL [1]	inhibition at 5 µg/mL [1]	inhibition at 10 µg/mL [1]	Levofloxacin MIC Against P. aerugiuosa PAM1001 in Presence of Efflux Pump Inhibitor (EPI), Minimum Inhibitory Concentration ([2]; EPI Conc. 0 μg/mL)	Levofloxacin MIC Against P. aerugiuosa PAM1001 in Presence of Efflux Pump Inhibitor (EPI), Minimum Inhibitory Concentration ([2]; EPI Conc. 0.625 μg/mL)	Levofloxacin MIC Against P. aerugiuosa PAM1001 in Presence of Efflux Pump Inhibitor (EPI), Minimum Inhibitory Concentration ([2]; EPI Conc. 1.25 μg/mL)	Levofloxacin MIC Against P. aerugiuosa PAM1001 in Presence of Efflux Pump Inhibitor (EPI), Minimum Inhibitory Concentration ([2]; EPI Conc. 2.5 μg/mL)	Levofloxacin MIC Against P. aerugiuosa PAM1001 in Presence of Efflux Pump Inhibitor (EPI), Minimum Inhibitory Concentration ([2]; EPI Conc. 5 μg/ mL)	Levofloxacin MIC Against P. aerugiuosa PAM1001 in Presence of Efflux Pump Inhibitor (EPI), Minimum Inhibitory Concentration ([2]; EPI Conc. 10 μg/mL)	Levofloxacin MIC Against P. aerugiuosa PAM1001 in Presence of Efflux Pump Inhibitor (EPI), Minimum Inhibitory Concentration ([2]; EPI Conc. 20 μg/mL)	Levofloxacin MIC Against P. aerugiuosa PAM1001 in Presence of Efflux Pump Inhibitor (EPI), Minimum Inhibitory Concentration ([2]; EPI Conc. 40 μg/mL)	MIC ([2]; Pseudomonas aeruginosa, PAM1001, read-out: MIC of levofloxacin against P. aeruginosa PAM1001)
N[C@H]1CN[C@H](C(=O)N2C[C@H](NC(=O)[C@H](O)CCc3ccccc3)C[C@H]2C(=O)Nc2cnc3ccccc3c2)C1 (mixture of isomers) [Compound D101, trans-4-Amino-L-Prolyl-trans-4-((R)-2-Hydroxy-4-Phenylbutyrylamino)-L-Proline 3-Quinolylamide Trihydrochloride]	20%	94%	–	–	–	–	–	–	–	–	–	–	–	–
NCC(=O)N[C@H]1CN[C@H](C(=O)N2C[C@H](NC(=O)[C@H](O)CCc3ccccc3)C[C@H]2C(=O)Nc2cnc3ccccc3c2)C1 (mixture of isomers) [Compound D103, trans-4-Glycylamino-L-Prolyl-trans-4-((R)-2-Hydroxy-4-Phenylbutyrylamino)-L-Proline 3-Quinolylamide Trihydrochloride]	100%	100%	17%	6%	99%	–	–	–	–	–	–	–	–	–
N=C(N)N[C@H]1CN[C@H](C(=O)N[C@H](CCc2ccccc2)C(=O)Nc2cnc3ccccc3c2)C1 [Compound M95, (2S,4R)-4-(Guanadinyl)-N-[(1R)-3-phenyl-1-(3-quinolylcarbamoyl)propyl]-2-pyrrolidinecarboxamide]	–	–	–	–	–	4 µg/mL	4 µg/mL	4 µg/mL	4 µg/mL	4 µg/mL	4 µg/mL	0.03 µg/mL	0.015 µg/mL	–
CC(C)(C)c1ccc2ncc(NC(=O)[C@H]3C[C@H](CN)CN3)cc2c1 [Compound M97, (2R,4R)-4-(Aminomethyl)-N-[6-(1,1-dimethyl)ethyl-3-quiolyl]-2-pyrrolidinecarboxamide]	–	–	–	–	–	4 µg/mL	4 µg/mL	4 µg/mL	2 µg/mL	0.5 µg/mL	0.125 µg/mL	0.015 µg/mL	0.008 µg/mL	–
NC[C@@H]1CN[C@@H](C(=O)N[C@H](CCc2ccccc2)CNC(=O)c2cnc3ccccc3c2)C1 [Compound M103, (2R,4R)-4-(Aminomethyl)-N-[(1R)-3-phenyl-1-[(3-quinolylcarboxamido)methyl]propyl]-2-pyrrolidinecarboxamide]	–	–	–	–	–	4 µg/mL	4 µg/mL	4 µg/mL	4 µg/mL	2 µg/mL	1 µg/mL	0.03 µg/mL	0.015 µg/mL	–
C[C@H]1COc2c(N3CCN(C)CC3)c(F)cc3c(=O)c(C(=O)O)cn1c23 [levofloxacin, reference compound]	–	–	–	–	–	–	–	–	–	–	–	–	–	4 µg/mL
(2R,4R)-4-(Aminomethyl)-N-(2-phenylethyl)-N-(3-quinolylcarbamoyl)ethyl]-2-pyrrolidinecarboxamide [Compound M45]	–	–	–	–	–	4 µg/mL	4 µg/mL	4 µg/mL	1 µg/mL	0.50 µg/mL	0.03 µg/mL	0.015 µg/mL	0.015 µg/mL	–
(2R,4S)-4-(2-Aminoacetamideo)-N-(2-methylpropyl)-N-(7-ethyl-3-quinolylcarbamoyl)ethyl]-2-pyrrolidinecarboxamide [Compound M44]	–	–	–	–	–	4 µg/mL	4 µg/mL	4 µg/mL	4 µg/mL	1 µg/mL	0.06 µg/mL	0.015 µg/mL	0.03 µg/mL	–
(2R,4S)-4-[(2R)-2-Aminopropionamido]-N-(2-phenylethyl)-N-(3-quinolylcarbamoyl)ethyl]-2-pyrrolidinecarboxamide [Compound M42]	–	–	–	–	–	4 µg/mL	4 µg/mL	4 µg/mL	4 µg/mL	4 µg/mL	0.50 µg/mL	0.06 µg/mL	0.06 µg/mL	–
(2S,4R)-4-(2-Aminoacetamideo)-N-(2-phenylethyl)-N-(3-quinolylcarbamoyl)ethyl]-2-pyrrolidinecarboxamide [Compound M43]	–	–	–	–	–	4 µg/mL	4 µg/mL	4 µg/mL	2 µg/mL	0.25 µg/mL	0.125 µg/mL	0.125 µg/mL	0.06 µg/mL	–
(2S,4R)-4-(2-Aminoacetamido)-N-[4-benzyl-2-benzimidazolyl)ethyl]-2-pyrrolidinecarboxamide [Compound M99]	–	–	–	–	–	4 µg/mL	4 µg/mL	4 µg/mL	4 µg/mL	4 µg/mL	4 µg/mL	0.06 µg/mL	0.03 µg/mL	–
(2S,4R)-4-(Aminompropionamido)-N-[(1R)-3-phenyl-1-(3-quinolylcarbamolyl)propyl]-2-pyrrolidinecarboxamide [Compound M5]	–	–	–	–	–	4 µg/mL	4 µg/mL	4 µg/mL	4 µg/mL	2 µg/mL	2 µg/mL	0.50 µg/mL	0.008 µg/mL	–
